The record followed here is the NIST ThermoML archive (doi:10.1021/je034153o).

SMILES strings stand for the structures. “And” between values parts separate entries of the source, which are not always exact repeats. Equal entries are not always repeated. ± gives the expanded uncertainty stated by the source.

For the data set the following is noted: 303.15 K; Liquid; Closed cell (Static) method.
The term vapor or sublimation pressure denotes the pressure of vapour in equilibrium with the condensed phase. On to `ClC(Cl)Cl` [trichloromethane], for which the “vapor or sublimation pressure” value came out at 32.41 ± 0.13 kPa. On to `CCOCCO` [2-ethoxyethan-1-ol], for which the “vapor or sublimation pressure” value was 0.981 ± 0.017 kPa and 0.984 ± 0.017 kPa and 0.968 ± 0.017 kPa. The figure for `ClC(Cl)(Cl)Cl` [tetrachloromethane] is 18.83 ± 0.083 kPa; for `ClCCl` [dichloromethane] it is 70.49 ± 0.27 kPa.
